Values joined by “and” are separate entries in the source; they are usually repeats but may differ in a detail not shown here. Equal entries are not always repeated.
Tests used:
Assay type in all cases: biochemical
PLK4 (h) = PLK4 (h) (Homo sapiens, UniProt O00444); assay: PLK-4 human kinase assay (SPA); conditions: for IC50: read-out: PLK4 pIC50 (converted)
Experimental: (§1) The in vitro inhibition of a panel of kinases was assessed using either the scintillation proximity assay (SPA) as described by Cook, N. D. et al., Advances in Experimental Medicine and Biology (1991), 36; p. 525-528; or the Fluorescence Resonance Energy Transfer (FRET) technology as described by Rodems, S. M. et al., Assay Drug Develop. Technol. (2002), 1; p. 9-19.
(§2) In the SPA technology the activity of the kinase of interest is measured using an appropriate biotinylated substrate that is incubated with the aforementioned kinase protein in the presence of (^33P) radiolabeled ATP. (^33P) Phosporylation of the substrate is subsequently measured through binding of the phosphorylated substrate to streptavidine coated beads that are based on the scintillant poly(vinyl toluene) (PVT-Beads). The scintillation intensity is detected by imaging on Leadseeker.
(§3) All kinases are pre-diluted to a 10× working concentration prior to addition into the assay. The composition of the dilution buffer for each kinase is detailed below.
In a final reaction volume of 30 μl PLK4 (h) (19 μg/ml) is incubated with 50 mM Hepes pH 8.0, 10 mM MgCl2, 50 mM NaCl, 1 mM NaF, 1 mM DTT, 10 μM of peptide Biotin-RPRGQRDSSYYWE-OH, 1 μM ATP and 2 nM [γ-^33P-ATP] (6.0 μCi/ml). After incubation of 60 minutes at room temperature, the reaction is stopped by addition of 40 μl, of stop solution containing 8.7 mM EDTA, BSA 0.17%, 0.17% Triton X-100, 1.7 mg/ml SPA beads (GE-healthcare). The plate is centriguged and read for Scintillation imaging on Leadseeker.

CDK1/CyclinB (h) = CDK1/CyclinB (h) (Homo sapiens, UniProt P06493); assay: CDK1/CyclinB human kinase assay (FRET); conditions: for IC50: read-out: CDK1 pIC50 (converted)
CDK1/CyclinB (h), sequence (P06493 whole entry): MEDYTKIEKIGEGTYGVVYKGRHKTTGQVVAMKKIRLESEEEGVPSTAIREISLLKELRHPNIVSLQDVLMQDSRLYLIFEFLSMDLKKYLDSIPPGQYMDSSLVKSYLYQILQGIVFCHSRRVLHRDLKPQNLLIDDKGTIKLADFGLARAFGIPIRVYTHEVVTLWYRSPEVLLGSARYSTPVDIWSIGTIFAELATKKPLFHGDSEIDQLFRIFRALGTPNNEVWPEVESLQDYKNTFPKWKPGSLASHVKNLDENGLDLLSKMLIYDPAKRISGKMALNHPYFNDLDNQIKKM
CDK1/CyclinB (h), sequence (P14635 whole entry partner): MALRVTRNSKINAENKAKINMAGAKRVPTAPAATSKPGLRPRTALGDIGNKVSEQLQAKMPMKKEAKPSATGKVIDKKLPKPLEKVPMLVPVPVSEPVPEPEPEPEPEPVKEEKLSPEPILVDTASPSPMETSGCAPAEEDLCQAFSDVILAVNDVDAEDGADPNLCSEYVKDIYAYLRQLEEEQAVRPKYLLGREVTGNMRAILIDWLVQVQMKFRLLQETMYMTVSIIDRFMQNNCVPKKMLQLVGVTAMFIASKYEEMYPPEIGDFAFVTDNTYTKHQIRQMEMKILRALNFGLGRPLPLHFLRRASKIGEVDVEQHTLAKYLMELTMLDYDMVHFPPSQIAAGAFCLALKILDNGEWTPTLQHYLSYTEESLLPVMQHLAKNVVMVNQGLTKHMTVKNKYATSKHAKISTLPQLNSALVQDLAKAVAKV
Experimental: as §1
In the FRET technology the activity of the kinase of interest is measured using an appropriate substrate that is labeled with two fluorophores (coumarin and fluorescein). Phosphorylation is determined using a developing reagent comprising a protease that recognizes and cleaves nonphosphorylated peptides. Cleavage will disturb the FRET between the fluorescein and coumarin on the peptide. Uncleaved, phosphorylated peptides maintain the FRET signal. A ratiometric readout of the donor emission over the acceptor emission quantitates the reaction process.
as §3
In a final reaction volume of 10 μl, CDK1/CyclinB (h) (0.2 μg/ml) is incubated with 50 mM Hepes pH 7.5, 10 mM MgCl2, 1 mM EGTA, 0.01% Brij-35, 2 μM Z'lyte Ser/Thr peptide 12 and 10 μM ATP (Invitrogen's FRET assay). After incubation of 60 minutes at room temperature, the reaction is stopped by addition of 5 μL development reagent containing protease mix. After 60 minutes room temperature the development reaction is stopped by adding 5 μl stop solution. The plate is then read in fluorescence plate reader with excitation: 390 nm and dual emission: 460 and 538 nm. Emission ratio is determined to the formula=Emission signal intensity at 460 nm/Emission signal intensity at 538 nm.

GSK3β (h) = GSK3β (h) (Homo sapiens, UniProt P49841); assay: GSK-3β human kinase assay (SPA); conditions: for IC50: read-out: GSK3B pIC50 (converted)
GSK3β (h), sequence (P49841 whole entry): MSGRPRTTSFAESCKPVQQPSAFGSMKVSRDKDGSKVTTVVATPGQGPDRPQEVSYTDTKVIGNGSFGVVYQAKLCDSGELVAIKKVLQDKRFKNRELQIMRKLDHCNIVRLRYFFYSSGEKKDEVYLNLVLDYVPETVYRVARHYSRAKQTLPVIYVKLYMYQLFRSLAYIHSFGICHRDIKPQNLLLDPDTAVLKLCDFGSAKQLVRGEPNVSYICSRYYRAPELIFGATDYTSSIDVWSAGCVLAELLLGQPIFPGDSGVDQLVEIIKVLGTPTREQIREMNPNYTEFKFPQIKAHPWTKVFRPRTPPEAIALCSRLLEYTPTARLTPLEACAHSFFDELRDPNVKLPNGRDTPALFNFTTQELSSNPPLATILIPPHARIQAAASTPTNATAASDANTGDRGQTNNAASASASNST
Experimental: as §1, §2, §3
In a final reaction volume of 30 μl, GSK3β (h) (1 μg/ml) is incubated with 25 mM Tris pH 7.4, 10 mM MgCl2, 1 mM DTT, 1 μM peptide Biotin-KRREILSRRPSYR-OH, 1 μM ATP and 2 nM [γ-^33P-ATP] (6.0 μCi/ml). After incubation of 60 minutes at room temperature, the reaction is stopped by addition of […] of stop solution containing 8.7 mM EDTA, BSA 0.17%, 0.17% Triton X-100, 6.25 mg/ml SPA beads (GE-healthcare). The plate is centriguged and read for Scintillation imaging on Leadseeker.

AuroraB (h) = AuroraB (h) (Homo sapiens, UniProt Q96GD4); assay: Aurora-B human kinase assay (SPA); conditions: for IC50: read-out: AuroraB pIC50 (converted)
AuroraB (h), sequence (Q96GD4 whole entry): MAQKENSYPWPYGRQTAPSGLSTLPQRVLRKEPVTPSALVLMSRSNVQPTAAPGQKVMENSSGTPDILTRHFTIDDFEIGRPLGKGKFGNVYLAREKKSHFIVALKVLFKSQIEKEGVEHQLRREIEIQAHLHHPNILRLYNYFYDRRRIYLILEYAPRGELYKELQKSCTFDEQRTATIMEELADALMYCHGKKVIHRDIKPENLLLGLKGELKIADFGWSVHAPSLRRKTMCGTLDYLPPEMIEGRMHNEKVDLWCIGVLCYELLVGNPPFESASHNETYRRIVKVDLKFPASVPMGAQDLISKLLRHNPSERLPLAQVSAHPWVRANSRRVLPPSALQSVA
Experimental: as §1, §2, §3
In a final reaction volume of 30 μl, AuroraB (h) (0.5 μg/ml) is incubated with 60 mM Hepes pH 7.5, 3 mM MgCl2, 3 mM MnCl2, 3 μM Na3VO4, 0.05 mg/ml PEG, 2 mM DTT, 3 μM Biotin-[…]-OH, 0.5 μM ATP and 2.2 nM [γ-^33P-ATP] (6.8 μCi/ml). After incubation of 60 minutes at room temperature, the reaction is stopped by addition of 40 μL of stop solution containing 8.7 mM EDTA, BSA 0.17%, 0.17% Triton X-100, 5 mg/ml SPA beads (GE-healthcare). The plate is centriguged and read for Scintillation imaging on Leadseeker.

PLK4 (h), sequence (O00444 whole entry): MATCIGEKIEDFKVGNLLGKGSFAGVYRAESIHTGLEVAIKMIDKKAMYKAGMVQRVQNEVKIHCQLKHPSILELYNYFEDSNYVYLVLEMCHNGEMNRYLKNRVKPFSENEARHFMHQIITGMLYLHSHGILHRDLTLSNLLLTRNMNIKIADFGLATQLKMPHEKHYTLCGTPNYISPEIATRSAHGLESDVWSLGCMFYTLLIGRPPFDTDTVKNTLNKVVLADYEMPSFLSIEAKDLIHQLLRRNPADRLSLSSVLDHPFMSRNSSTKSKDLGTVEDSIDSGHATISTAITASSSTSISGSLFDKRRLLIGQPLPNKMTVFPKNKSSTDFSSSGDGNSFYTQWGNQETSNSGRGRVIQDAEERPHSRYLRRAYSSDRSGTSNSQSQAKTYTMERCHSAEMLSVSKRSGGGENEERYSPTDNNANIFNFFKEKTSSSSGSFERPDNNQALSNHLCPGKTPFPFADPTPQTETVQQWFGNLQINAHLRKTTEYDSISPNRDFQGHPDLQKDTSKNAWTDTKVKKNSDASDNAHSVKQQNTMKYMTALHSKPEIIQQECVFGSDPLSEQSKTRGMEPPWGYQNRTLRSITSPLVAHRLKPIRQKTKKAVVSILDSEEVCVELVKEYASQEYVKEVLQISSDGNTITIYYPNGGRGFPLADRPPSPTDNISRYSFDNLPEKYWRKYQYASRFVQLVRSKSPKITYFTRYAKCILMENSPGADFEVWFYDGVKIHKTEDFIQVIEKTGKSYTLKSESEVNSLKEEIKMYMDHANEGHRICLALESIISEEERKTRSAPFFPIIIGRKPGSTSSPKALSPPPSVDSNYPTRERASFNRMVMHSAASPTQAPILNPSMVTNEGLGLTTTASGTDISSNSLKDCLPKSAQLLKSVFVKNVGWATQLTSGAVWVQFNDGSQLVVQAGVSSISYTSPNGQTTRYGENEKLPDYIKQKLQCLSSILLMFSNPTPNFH

CN1CCCNc2ncnc3c2C(=CNc2ccc(Cl)c(c2)OCCCC1=O)C(=O)N3 (mixture of isomers) [Compound 63]
PLK4 pIC50 (PLK4 (h)): 6.52 | CDK1 pIC50 (CDK1/CyclinB (h)): 6.1 | GSK3B pIC50 (GSK3β (h)): 7.68 | AuroraB pIC50 (AuroraB (h)): 7.01

COc1ccc2cc1CN(C)CCCCCCC(=O)N(C)CCCNc1ncnc3c1C(=CN2)C(=O)N3 (mixture of isomers) [Compound 68]
PLK4 pIC50 (PLK4 (h)): 5.74 | CDK1 pIC50 (CDK1/CyclinB (h)): <5 | GSK3B pIC50 (GSK3β (h)): 5.04 | AuroraB pIC50 (AuroraB (h)): <5

CN1CCCNc2ncnc3c2C(=CNc2cccc(c2)OCCCCC1=O)C(=O)N3 (mixture of isomers) [Compound 70]
PLK4 pIC50 (PLK4 (h)): 6.75 | CDK1 pIC50 (CDK1/CyclinB (h)): 5.61 | GSK3B pIC50 (GSK3β (h)): 7.28 | AuroraB pIC50 (AuroraB (h)): 6.8

CN1CCCNc2ncnc3c2C(=CNc2cccc(c2)OCCCCCC1=O)C(=O)N3 (mixture of isomers) [Compound 71]
PLK4 pIC50 (PLK4 (h)): 6.7 | CDK1 pIC50 (CDK1/CyclinB (h)): 5.56 | GSK3B pIC50 (GSK3β (h)): 7.21 | AuroraB pIC50 (AuroraB (h)): 6.15

COc1ccc2cc1OCCCCCCC(=O)N(C)CCNc1ncnc3c1C(=CN2)C(=O)N3 (mixture of isomers) [Compound 76]
PLK4 pIC50 (PLK4 (h)): 5.72 | CDK1 pIC50 (CDK1/CyclinB (h)): <5 | GSK3B pIC50 (GSK3β (h)): 6.54 | AuroraB pIC50 (AuroraB (h)): 6.28

CN1CCCN(C)c2ncnc3c2C(=CNc2ccc(Cl)c(c2)OCCCC1=O)C(=O)N3 (mixture of isomers) [Compound 86]
PLK4 pIC50 (PLK4 (h)): 5.9 | CDK1 pIC50 (CDK1/CyclinB (h)): <5 | GSK3B pIC50 (GSK3β (h)): 6.42 | AuroraB pIC50 (AuroraB (h)): 5.47

COc1ccc2cc1CN(C)CCCCC(=O)N(C)CCCN(C)c1ncnc3c1C(=CN2)C(=O)N3 (mixture of isomers) [Compound 87]
PLK4 pIC50 (PLK4 (h)): <5 | CDK1 pIC50 (CDK1/CyclinB (h)): <5 | GSK3B pIC50 (GSK3β (h)): 6.17 | AuroraB pIC50 (AuroraB (h)): <5

CN1CCCN(C)c2ncnc3c2C(=CNc2cccc(c2)OCCCC1=O)C(=O)N3 (mixture of isomers) [Compound 88]
PLK4 pIC50 (PLK4 (h)): 5.85 | CDK1 pIC50 (CDK1/CyclinB (h)): <5 | GSK3B pIC50 (GSK3β (h)): 6.26 | AuroraB pIC50 (AuroraB (h)): 5.33

COc1ccc2cc1CN(C)CCCCCC(=O)N(C)CCCN(C)c1ncnc3c1C(=CN2)C(=O)N3 (mixture of isomers) [Compound 89]
PLK4 pIC50 (PLK4 (h)): <5 | CDK1 pIC50 (CDK1/CyclinB (h)): <5 | GSK3B pIC50 (GSK3β (h)): <5 | AuroraB pIC50 (AuroraB (h)): <5

CN1CC(=O)N2CCN(CC2)c2cccc3c2/C(=C/Nc2cccc(c2)S1(=O)=O)C(=O)N3 [Compound 2]
IC50 (PLK4 (h)): 4.57 µM | IC50 (CDK1/CyclinB (h)): 5.62 µM | IC50 (GSK3β (h)): 1.17 µM | IC50 (AuroraB (h)): > 10 µM

COc1cc2cc(c1OC)CN(C)CCCC(=O)N(C)CCCNc1ncnc3c1/C(=C/N2)C(=O)N3 [Compound 6]
IC50 (PLK4 (h)): 6.17 µM | IC50 (CDK1/CyclinB (h)): ~10 µM | IC50 (GSK3β (h)): > 10 µM | IC50 (AuroraB (h)): > 10 µM

CN1CCCC(=O)N(C)CCCNc2ncnc3c2/C(=C/Nc2ccc(N4CCOCC4)c(c2)C1)C(=O)N3 [Compound 7]
IC50 (PLK4 (h)): 0.759 µM | IC50 (CDK1/CyclinB (h)): 1.7 µM | IC50 (GSK3β (h)): 0.0741 µM | IC50 (AuroraB (h)): > 10 µM

CN1CCNc2ncnc3c2/C(=C/Nc2ccc(N4CCOCC4)c(c2)OCCCC1=O)C(=O)N3 [Compound 8]
IC50 (PLK4 (h)): > 10 µM | IC50 (CDK1/CyclinB (h)): > 10 µM | IC50 (GSK3β (h)): > 10 µM | IC50 (AuroraB (h)): > 10 µM

CN1CCC(=O)NCC#Cc2cccc3c2/C(=C/Nc2cccc(c2)S(=O)(=O)N(C)CC1=O)C(=O)N3 [Compound 21]
IC50 (PLK4 (h)): 1.86 µM | IC50 (CDK1/CyclinB (h)): > 10 µM | IC50 (GSK3β (h)): 4.68 µM | IC50 (AuroraB (h)): > 10 µM

N#Cc1ccc2cc1OCCCCC(=O)N1CCN(CC1)c1ncnc3c1/C(=C/N2)C(=O)N3 [Compound 26]
IC50 (PLK4 (h)): > 10 µM | IC50 (CDK1/CyclinB (h)): > 10 µM | IC50 (GSK3β (h)): 2.63 µM | IC50 (AuroraB (h)): > 10 µM

CN1CCNc2ncnc3c2/C(=C/Nc2ccc(Cl)c(c2)OCCCCC1=O)C(=O)N3 [Compound 56]
IC50 (PLK4 (h)): 3.47 µM | IC50 (CDK1/CyclinB (h)): ~6.76 µM and 6.76 µM | IC50 (GSK3β (h)): 0.166 µM | IC50 (AuroraB (h)): 0.759 µM

CN1CCNc2ncnc3c2/C(=C/Nc2ccc(Cl)c(c2)OCCCCCC1=O)C(=O)N3 [Compound 57]
IC50 (PLK4 (h)): 4.79 µM | IC50 (CDK1/CyclinB (h)): > 10 µM | IC50 (GSK3β (h)): 0.263 µM | IC50 (AuroraB (h)): 1.07 µM

CN1CCNc2ncnc3c2/C(=C/Nc2cccc(c2)OCCCCCCC1=O)C(=O)N3 [Compound 59]
IC50 (PLK4 (h)): 4.37 µM | IC50 (CDK1/CyclinB (h)): > 10 µM | IC50 (GSK3β (h)): 1.05 µM | IC50 (AuroraB (h)): 5.13 µM

CN1CCNc2ncnc3c2/C(=C/Nc2ccc(Cl)c(c2)OCCCC1=O)C(=O)N3 [Compound 60]
IC50 (PLK4 (h)): 1.74 µM | IC50 (CDK1/CyclinB (h)): 0.229 µM | IC50 (GSK3β (h)): 0.263 µM | IC50 (AuroraB (h)): 0.891 µM

CN1CCCNc2ncnc3c2/C(=C/Nc2ccc(Cl)c(c2)OCCCCCC1=O)C(=O)N3 [Compound 64]
IC50 (PLK4 (h)): 2.14 µM | IC50 (CDK1/CyclinB (h)): > 10 µM | IC50 (GSK3β (h)): 0.0427 µM | IC50 (AuroraB (h)): 0.794 µM

CN1CCCNc2ncnc3c2/C(=C/Nc2ccc(Cl)c(c2)OCCCCCCC1=O)C(=O)N3 [Compound 65]
IC50 (PLK4 (h)): 8.91 µM | IC50 (CDK1/CyclinB (h)): > 10 µM | IC50 (GSK3β (h)): 1.38 µM | IC50 (AuroraB (h)): > 10 µM

COc1ccc2cc1OCCCCCC(=O)N(C)CCCNc1ncnc3c1/C(=C/N2)C(=O)N3 [Compound 66]
IC50 (PLK4 (h)): 0.479 µM | IC50 (CDK1/CyclinB (h)): 2.34 µM | IC50 (GSK3β (h)): 0.0776 µM | IC50 (AuroraB (h)): 0.347 µM

COc1ccc2cc1CN(C)CCCCC(=O)N(C)CCCNc1ncnc3c1/C(=C/N2)C(=O)N3 [Compound 67]
IC50 (PLK4 (h)): 5.62 µM | IC50 (CDK1/CyclinB (h)): 0.603 µM | IC50 (GSK3β (h)): 0.178 µM | IC50 (AuroraB (h)): > 10 µM

COc1ccc2cc1OCCCCCCC(=O)N(C)CCCNc1ncnc3c1/C(=C/N2)C(=O)N3 [Compound 72]
IC50 (PLK4 (h)): 1.45 µM | IC50 (CDK1/CyclinB (h)): > 10 µM | IC50 (GSK3β (h)): 0.575 µM | IC50 (AuroraB (h)): 1.91 µM

CN1CCCC(=O)N(C)CCCNc2ncnc3c2/C(=C/Nc2cccc(c2)C1)C(=O)N3 [Compound 73]
IC50 (PLK4 (h)): 3.72 µM | IC50 (CDK1/CyclinB (h)): 1.78 µM | IC50 (GSK3β (h)): 0.851 µM | IC50 (AuroraB (h)): > 10 µM

From patent publication US8338422B2, “Indolin-2-ones and aza-indolin-2-ones” (Janssen Pharmaceutica NV, priority 2007, dated 2012)
